Assays:
[1] = system: soybean; test: Test B pre/postemergence soybean; format: in vivo, Glycine max
How it was run: (§1)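 Response is a visual 0-to-10 score relative to untreated plants, where 0 means no effect and 10 means complete control, taken twelve to sixteen days after application. Treatments went onto soil at planting and onto foliage of 1- to 4-leaf plants, using a surfactant-containing non-phytotoxic solvent.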

[2] = system: purple nutsedge; test: Test B pre/postemergence purple nutsedge; format: in vivo, Cyperus rotundus; settings: Postemergence
How it was run: as §1

[3] = system: pigweed; test: Test B pre/postemergence pigweed; format: in vivo, Amaranthus retroflexus
How it was run: as §1

[4] = system: bamyardgrass; test: Test B flood test barnyardgrass; format: in vivo, Echinochloa crus-galli
How it was run: (§2)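 Each value is a visual injury score relative to controls, with 10 meaning complete control and 0 no effect. Evaluation took place twelve to sixteen days after the 2-leaf-stage plants were treated and kept in the greenhouse.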

[5] = system: wild oat; test: Test B pre/postemergence wild oat; format: in vivo, Avena fatua
How it was run: as §1

[6] = system: corn; test: Test B pre/postemergence corn; format: in vivo, Zea mays
How it was run: as §1

[7] = system: cocklebur; test: Test B pre/postemergence cocklebur; format: in vivo, Xanthium strumarium
How it was run: as §1

[8] = system: wheat; test: Test B pre/postemergence wheat; format: in vivo, Triticum aestivum
How it was run: as §1

[9] = system: crabgrass; test: Test B pre/postemergence crabgrass; format: in vivo, Digitaria sanguinalis
How it was run: as §1

[10] = system: morningglory; test: Test B pre/postemergence morningglory; format: in vivo, Ipomoea hederacea
How it was run: as §1

[11] = system: rice; test: Test B flood test rice; format: in vivo, Oryza sativa
How it was run: as §2

[12] = system: velvetleaf; test: Test B pre/postemergence velvetleaf; format: in vivo, Abutilon theophrasti
How it was run: as §1

[13] = system: sugar beet; test: Test B pre/postemergence sugar beet; format: in vivo, Beta vulgaris
How it was run: as §1

[14] = system: giant foxtail; test: Test B pre/postemergence giant foxtail; format: in vivo, Setaria faberii
How it was run: as §1

[15] = system: rape; test: Test B pre/postemergence rape; format: in vivo, Brassica napus
How it was run: as §1

[16] = system: duck salad; test: Test B flood test duck salad; format: in vivo, Heteranthera limosa
How it was run: as §2

[17] = Preemergence, Rate 62 g/ha, scale of 0 to 10 where 0 is no effect and 10 is complete control
[18] = Preemergence, Rate 125 g/ha, 0 is no effect, 10 is complete control
[19] = Preemergence, Rate 250 g/ha, scale 0 to 10, 0 is no effect, 10 is complete control
[20] = Preemergence, Rate 500 g/ha, scale of 0 to 10 where 0 is no effect and 10 is complete control
[21] = Rate 62 g/ha, Postemergence, scale of 0 to 10 where 0 is no effect and 10 is complete control
[22] = Rate 125 g/ha, Postemergence, scale 0 to 10
[23] = Rate 500 g/ha, Postemergence, scale 0 to 10
[24] = Rate 62 g/ha, headed Pre-emergence (flood test species), scale 0 to 10 (0 no effect, 10 complete control)
[25] = Rate 125 g/ha, Pre-emergence, flood test species, scale 0 to 10 where 0 is no effect and 10 is complete control
[26] = Rate 250 g/ha, Pre-emergence, flood-test species, scale 0 to 10, 0 is no effect, 10 is complete control
[27] = Rate 500 g/ha, headed Pre-emergence (flood test species), scale 0 to 10 (0 no effect, 10 complete control)

Cc1ccccc1-n1c(=O)on(C(=O)N(c2ccc(Cl)cc2F)C(C)C)c1=O [Compound 195]
Soybean plant response rating [1, 17]: 0 | Soybean plant response rating (0 to 10 scale) [1, 18]: 0 | Soybean plant response rating [1, 19]: 0 | Plant response rating, Soybean [1, 20]: 0 | Soybean plant response rating [1, 21]: 2 | Soybean plant response rating [1, 22]: 3 | Plant response rating (0 to 10; 0 is no effect, 10 is complete control), Soybean ([1]; Rate 250 g/ha, Postemergence): 4 | Soybean plant response rating [1, 23]: 5 | Nutsedge plant response rating ([2]; Rate 62 g/ha, scale of 0 to 10 where 0 is no effect and 10 is complete control): 0 | Nutsedge plant response rating ([2]; Rate 125 g/ha, scale 0 to 10): 0 | Plant response rating (0 to 10; 0 is no effect, 10 is complete control), Nutsedge ([2]; Rate 250 g/ha): 0 | Nutsedge plant response rating ([2]; Rate 500 g/ha, scale 0 to 10): 0 | Redroot pigweed plant response rating [3, 17]: 0 | Redroot pigweed plant response rating (0 to 10 scale) [3, 18]: 0 | Redroot pigweed plant response rating [3, 19]: 0 | Plant response rating, Redroot pigweed [3, 20]: 0 | Redroot pigweed plant response rating [3, 21]: 0 | Redroot pigweed plant response rating [3, 22]: 0 | Plant response rating (0 to 10; 0 is no effect, 10 is complete control), Redroot pigweed ([3]; Rate 250 g/ha, Postemergence): 2 | Redroot pigweed plant response rating [3, 23]: 4 | Barnyardgrass plant response rating [4, 24]: 0 | Barnyardgrass plant response rating [4, 25]: 0 | Barnyardgrass plant response rating [4, 26]: 0 | Plant response rating, Barnyardgrass [4, 27]: 0 | Wild oats plant response rating [5, 17]: 0 | Wild oats plant response rating [5, 19]: 0 | Plant response rating, Wild oats [5, 20]: 4 | Wild oats plant response rating [5, 21]: 0 | Wild oats plant response rating [5, 22]: 0 | Plant response rating (0 to 10; 0 is no effect, 10 is complete control), Wild oats ([5]; Rate 250 g/ha, Postemergence): 0 | Corn plant response rating [6, 17]: 0 | Corn plant response rating (0 to 10 scale) [6, 18]: 0 | Corn plant response rating [6, 19]: 0 | Plant response rating, Corn [6, 20]: 0 | Corn plant response rating [6, 21]: 0 | Corn plant response rating [6, 22]: 0 | Plant response rating (0 to 10; 0 is no effect, 10 is complete control), Corn ([6]; Rate 250 g/ha, Postemergence): 0 | Corn plant response rating [6, 23]: 0 | Cocklebur plant response rating [7, 17]: 0 | Cocklebur plant response rating (0 to 10 scale) [7, 18]: 0 | Cocklebur plant response rating [7, 19]: 0 | Plant response rating, Cocklebur [7, 20]: 0 | Cocklebur plant response rating [7, 21]: 0 | Cocklebur plant response rating [7, 22]: 2 | Plant response rating (0 to 10; 0 is no effect, 10 is complete control), Cocklebur ([7]; Rate 250 g/ha, Postemergence): 2 | Cocklebur plant response rating [7, 23]: 2 | Wheat plant response rating [8, 17]: 0 | Wheat plant response rating [8, 19]: 0 | Plant response rating, Wheat [8, 20]: 0 | Wheat plant response rating [8, 21]: 0 | Wheat plant response rating [8, 22]: 0 | Plant response rating (0 to 10; 0 is no effect, 10 is complete control), Wheat ([8]; Rate 250 g/ha, Postemergence): 0 | Crabgrass plant response rating [9, 17]: 3 | Crabgrass plant response rating (0 to 10 scale) [9, 18]: 4 | Crabgrass plant response rating [9, 19]: 5 | Plant response rating, Crabgrass [9, 20]: 9 | Crabgrass plant response rating [9, 21]: 0 | Crabgrass plant response rating [9, 22]: 0 | Plant response rating (0 to 10; 0 is no effect, 10 is complete control), Crabgrass ([9]; Rate 250 g/ha, Postemergence): 2 | Crabgrass plant response rating [9, 23]: 5 | Morningglory plant response rating [10, 17]: 0 | Morningglory plant response rating (0 to 10 scale) [10, 18]: 0 | Morningglory plant response rating [10, 19]: 0 | Plant response rating, Morningglory [10, 20]: 0 | Morningglory plant response rating [10, 21]: 0 | Morningglory plant response rating [10, 22]: 0 | Plant response rating (0 to 10; 0 is no effect, 10 is complete control), Morningglory ([10]; Rate 250 g/ha, Postemergence): 1 | Morningglory plant response rating [10, 23]: 3 | Rice plant response rating [11, 24]: 0 | Rice plant response rating [11, 25]: 0 | Rice plant response rating [11, 26]: 0 | Plant response rating, Rice [11, 27]: 0 | Velvetleaf plant response rating [12, 17]: 0 | Velvetleaf plant response rating [12, 19]: 0 | Plant response rating, Velvetleaf [12, 20]: 0 | Velvetleaf plant response rating [12, 21]: 0 | Velvetleaf plant response rating [12, 22]: 0 | Plant response rating (0 to 10; 0 is no effect, 10 is complete control), Velvetleaf ([12]; Rate 250 g/ha, Postemergence): 2 | Sugarbeets plant response rating [13, 17]: 0 | Sugarbeets plant response rating (0 to 10 scale) [13, 18]: 0 | Sugarbeets plant response rating [13, 19]: 0 | Plant response rating, Sugarbeets [13, 20]: 2 | Sugarbeets plant response rating [13, 21]: 0 | Sugarbeets plant response rating [13, 22]: 0 | Plant response rating (0 to 10; 0 is no effect, 10 is complete control), Sugarbeets ([13]; Rate 250 g/ha, Postemergence): 0 | Sugarbeets plant response rating [13, 23]: 2 | Giant foxtail plant response rating [14, 17]: 3 | Giant foxtail plant response rating (0 to 10 scale) [14, 18]: 3 | Giant foxtail plant response rating [14, 19]: 8 | Plant response rating, Giant foxtail [14, 20]: 10 | Giant foxtail plant response rating [14, 21]: 0 | Giant foxtail plant response rating [14, 22]: 0 | Plant response rating (0 to 10; 0 is no effect, 10 is complete control), Giant foxtail ([14]; Rate 250 g/ha, Postemergence): 1 | Giant foxtail plant response rating [14, 23]: 3 | Rape plant response rating [15, 17]: 0 | Rape plant response rating (0 to 10 scale) [15, 18]: 0 | Rape plant response rating [15, 19]: 0 | Plant response rating, Rape [15, 20]: 0 | Rape plant response rating [15, 21]: 0 | Rape plant response rating [15, 22]: 0 | Plant response rating (0 to 10; 0 is no effect, 10 is complete control), Rape ([15]; Rate 250 g/ha, Postemergence): 0 | Rape plant response rating [15, 23]: 0 | Ducksalad plant response rating [16, 24]: 0 | Ducksalad plant response rating [16, 25]: 0 | Ducksalad plant response rating [16, 26]: 0 | Plant response rating, Ducksalad [16, 27]: 0

— US6737383B1, “Herbicidal oxadiazolidines” (priority 1999, dated 2004)
